Measurements published in PubChem BioAssay AID1465 (SRMLSC, 2008).

Tested on: S. cerevisiae Yfh1-off respiration, WST-1 reduction, 72 h
Test: enhancers of respiration in Yfh1-depleted yeast, dose response, Friedreich's ataxia, plus single-dose screen (AID 1465);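 further: activators that raise dye reduction in frataxin-depleted yeast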

| Compound | EC50 [µM] |
| --- | --- |
| CC1=CC(=O)c2ccccc2C1=O | 45.7 |
| CCC(=O)NC(c1ccc(C)cc1)c1cc([N+](=O)[O-])c2cccnc2c1O (stereo not given) | 24.7 |
| COc1cc([N+](=O)[O-])cc(/C=N/NC(=O)c2cc(-c3ccccc3)nc3ccccc23)c1O | 35.2 |
| O=[N+]([O-])c1cccc(/C=N/Nc2nc(NCc3ccccc3)nc(N3CCOCC3)n2)c1O | 50.9 |
| O=C(NNC1=C(C(=O)C(F)(F)F)CCC1)c1ccc(Br)cc1 | 59.8 |
| CCC(C(=O)O)N1C(=O)/C(=C/c2cccn2C)SC1=S (stereo not given) | 96.7 |
| CCC(=O)NC(c1ccc(OC)c(OC)c1)c1cc(Cl)c2cccnc2c1O (stereo not given) | 29.2 |
| Cc1cc(C(=O)N/N=C/c2ccc(O)c(O)c2O)c(C)n1-c1ccccc1 | 46 |
| Cn1cccc1/C=C1\SC(=S)N(CC(=O)O)C1=O | 92.2 |
| CC1=C(C)C(=O)C(CCCCC#CCCCC#CCO)=C(C)C1=O | 94.8 |
| CC(=O)NC(c1ccc(C)cc1)c1cc([N+](=O)[O-])c2cccnc2c1O (stereo not given) | 25 |
| CCCCC(=O)NC(c1cccs1)c1cc(Cl)c2cccnc2c1O (stereo not given) | 8.49 |
| O=C(C1=C(c2ccccc2)C(=O)c2ccccc2C1=O)c1ccccc1 | 35.6 |
| CC(=O)NC(c1cccs1)c1cc([N+](=O)[O-])c2cccnc2c1O (stereo not given) | 25.4 |
| CCCCCC(=O)NNC(=S)NC(C)=O | 34.6 |
| O=[N+]([O-])c1ccc(Sc2cccc[n+]2[O-])c2nonc12 | 16.8 |
| O=C(Cn1nc(Cl)nc1Cl)c1cc2ccccc2oc1=O | 72.6 |
| CCC(=O)NC(c1ccc(OC)cc1)c1cc(Cl)c2cccnc2c1O (stereo not given) | 38.2 |
| CCCC(=O)NC(c1cccs1)c1cc([N+](=O)[O-])c2cccnc2c1O (stereo not given) | 20.9 |
| Cc1coc2c1C(=O)C(=O)c1c-2ccc2c(C)cccc12 | 78.8 |

| Compound | EC50 [µM] |
| --- | --- |
| O=C1C=C(NCc2ccccc2)c2ccccc2C1=O | 36.1 |
| CCCC(=O)NC(c1ccco1)c1cc([N+](=O)[O-])c2cccnc2c1O (stereo not given) | 55.2 |
| CCC(=O)NC(c1cccs1)c1cc([N+](=O)[O-])c2cccnc2c1O (stereo not given) | 34.4 |
| COc1ccccc1N1CCN(Cc2ccc(O)c3ncccc23)CC1 | 43 |
| Cc1ccc(NS(=O)(=O)c2cc([N+](=O)[O-])ccc2NNC(=S)Nc2cccc(Cl)c2)c(C)c1 | 30.8 |
| CCN1CCS/C1=C\C=C\C1=[N+](CC)CCS1 | 53.7 |
| CCN1/C(=C\C=C(C(C)=O)C(C)=O)Sc2ccccc21 | 87.4 |
| CCC(=O)NC(c1cccs1)c1cc(Cl)c2cccnc2c1O (stereo not given) | 65.9 |
| Cc1c(N/N=C(\C#N)C(=O)c2ccc(Cl)cc2)c(=O)n(-c2ccccc2)n1C | 21.5 |
| COc1ccc(Cn2c(O)c(/C=N/NC(=O)c3cccnc3)c3ccccc3c2=O)cc1 | 75.4 |
| O=C1C(Cl)=C(Nc2ccccc2)C(=O)c2ccccc21 | 67.6 |
| Cc1ccccc1C(=O)/C(C#N)=N/Nc1c(C)n(C)n(-c2ccccc2)c1=O | 60 |
| Cc1c(N/N=C(\C#N)C(=O)c2ccccc2)c(=O)n(-c2ccccc2)n1C | 52 |
| O=C(COc1ccc(Cl)cc1Cl)NNC(=S)Nc1ccc(F)cc1 | 83.3 |
| COC(=O)c1ccc(=O)c2nc3/c(=C/O)c(O)cc(=O)c3[nH]c12 | 21.9 |
| CCCCC(=O)NC(c1ccccc1OC)c1ccc2cccnc2c1O (stereo not given) | 36.5 |
| COc1ccc(C2=NN(c3nc4ccccc4s3)C(=O)C2)cc1 | 59.4 |
| COc1ccccc1C(=O)NNC1=C(C(=O)C(F)(F)F)CCC1 | 25.3 |
| O=C(O)c1cccc(NC(=S)N/N=C/c2ccccn2)c1 | 78.1 |
| NC(=S)n1[nH]c(-c2ccc([N+](=O)[O-])cc2)c(N=Nc2cccc([N+](=O)[O-])c2)c1=O | 44.1 |

| Compound | EC50 [µM] |
| --- | --- |
| Oc1ccc(CN2CCC(Cc3ccccc3)CC2)c2cccnc12 | 96.9 |
| COc1cc(/C=N/NC(=O)c2cncc(Br)c2)cc([N+](=O)[O-])c1O | 58.1 |
| CC[n+]1c(C=C2C=C(C)OC(C)=C2)sc2ccccc21 | 83.8 |
| CC1=CC(=Cc2sc3ccccc3[n+]2C)C=C(C)O1 | 93.7 |
| CN1/C(=C\C=C2C(=O)NC(=O)NC2=O)C(C)(C)c2ccccc21 | 96.8 |
| O=C1c2ccccc2NC(c2ccc(-c3cccc(Cl)c3)o2)N1O (stereo not given) | 80 |
| O=C1NC(=O)C(=Cc2ccc(N3CCOCC3)o2)C(=O)N1 | 96.6 |
| CC1CC(=O)c2c(cc3c(-c4c(O)cc(O)c5c(O)c6c(cc45)OC(C)CC6=O)c(O)cc(O)c3c2O)O1 (stereo not given) | 75 |
| CCOC(=O)c1c(C)oc2c1c(CN1CCN(CCO)CC1)c(O)c1ccccc12 | 85 |
| O=c1cc(-c2ccccc2)[nH]n1-c1nc2ccccc2s1 | 49.1 |
| Cc1oc2c(c1C(=O)c1ccccc1)C(=O)C(=O)c1ccccc1-2 | 35.2 |
| CCN(CC)c1ccc(/C=N/NC(=O)c2cccc(S(=O)(=O)Nc3ccccc3OC)c2)c(O)c1 | 75.4 |
| O=C(CCc1ccccc1)NC(c1cccs1)c1cc(Cl)c2cccnc2c1O (stereo not given) | 7.44 |
| CCOC(=O)C1=C(Cc2ccc(F)cc2)C(=O)c2ccccc2C1=O | 36 |
| CC1=C(C)C(=O)C(N2CCOCC2)=CC1=O | 14.3 |
| O=C(N/N=C/c1c(O)n(Cc2ccccc2)c(=O)c2ccccc12)c1cccnc1 | 71.9 |
| CCN1CCS/C1=C/C=C/C1=[N+](CC)CCS1 | 56.3 |
| CCOC(=O)/C(C#N)=C\C=C1C=CN(C)C=C1 | 96 |
| c1ccc(-c2ccc(SCc3cccnc3)nn2)nc1 | 42.5 |
| O=C(O)c1cccc2nc3ccccc3nc12 | 47.6 |
